# Source: patent publication US11679097B2, “Combination product containing limonoid compound and biguanide compound” (ZHEJIANG YANGSHENGTANG INSTITUTE OF NATURAL MEDICATION CO., …, priority 2017, dated 2023)
# Assays:
# Format in all cases: in vivo
# STZ mice [1] = assay: Blood glucose in mouse pancreatic islet β-cell injury model (Example 3); settings: STZ ICR mice; single administration 0.1 g/kg per day by gavage, two weeks; 1 h after last administration
# From the text: Effects of a Limonoid Compound, Metformin or a Combination Thereof on Blood Glucose in a Mouse Pancreatic Islet β-Cell Injury Model In this example, a mouse pancreatic islet β-cell injury model was established by modeling ICR mice with streptozotocin (STZ) (referred to the prior art literature: Li Nan et al., Protective effect of pine pollen on kidney damage in diabetic nephropathy mice, Science and Technology Review, 2014, 32 (4/5): 95-99), and used to complete the evaluation of hypoglycemic effect in animals (this model could simulate pancreatic islet β-cell damage state of type I and type II diabetics). […] Conditions of experimental feeding: ICR mice (20±2 g), aged 6 weeks, purchased from Zhejiang Academy of Medical Sciences, and subjected to experimental feeding after 7 days of preliminary feeding. […] The experimental feed was mouse growth-stable feed (GB […]), and the daily feeding and management of the animals were under the responsibility of the animal security department, which provided the animals with sufficient padding and fresh drinking water daily. Experimental grouping: 15 male mice were randomly selected as the normal control group. […] Gavage doses: the gavage dose was 0.1 g/kg per day for the […] group, the gavage dose was 0.1 g/kg per day for the […] group, the gavage dose was 0.1 g/kg per day for the […]-glucopyranoside group, the gavage dose of metformin was 0.1 g/kg per day for the metformin group, […] dose of 0.05 g/kg and metformin at a dose of 0.05 g/kg were simultaneously gavaged per day for the […]/metformin combination group, […] dose of 0.05 g/kg and metformin at a dose of 0.05 g/kg were simultaneously gavaged per day for the […]/metformin combination group, […]-glucopyranoside at a dose of 0.05 g/kg and metformin at a dose of 0.05 g/kg were simultaneously gavaged per day for the […]-glucopyranoside/metformin combination group, the gavage volume was 10 mL/kg, and the normal group and the model group were administrated with 10 mL/kg of distilled water. […] SPSS 16.0 software was used for statistical analysis. The data were expressed as mean and standard deviation. The data before and after were analyzed by t-test, and P<0.05 was considered statistically significant.
# db/db mice = assay: Blood glucose and insulin in mouse model of type II diabetes (Example 4); settings: single administration 0.2 g/kg per day by gavage, two weeks
# From the text: Effects of a Limonoid Compound, Metformin or a Combination Thereof on Blood Glucose and Insulin in a Mouse Model of Type II Diabetes
# In the present embodiment, the limonoid compound selected nomilin, deacetylnomilin, nomilin acid, deactylnomilin 17-β-D-glucopyranoside, and a nomilin single administration group, deacetylnomilin single administration group, nomilin acid single administered group, deactylnomilin 17-β-D-glucopyranoside single administration group, and combination thereof with metformin administration groups were set, respectively.
# (§1) Conditions for experimental feeding: as type II diabetes model mice, 6-week-old SPF-grade db/db mice were purchased from the Nanjing Model Biology Institute, and subjected to experimental feeding after 7 days of preliminary feeding. It should be noted that the conditions for raising the mice were as follows: the temperature was 23±1° C., the humidity was 55±10%, the lights were turned on between 7 am and 7 pm (the lights were turned off at other time), and the mice were allowed to access to water and feed freely. The experimental feed was mouse growth-stable feed (GB M2118), and the daily feeding and management of the animals were under the responsibility of the animal security department, which provided the animals with sufficient padding and fresh drinking water daily.
# Experimental grouping: male db/db mice (20±2 g) were selected, 18 male mice in each group were tested, and drinking bottles were sterilized weekly. The experimental groups included the normal control group (db/m, n=18), the model group (db/db, n=18), the nomilin group (db/db, n=18), the deacetylnomilin group (db/db, n=18), the nomilin acid group (db/db, n=18), the deactylnomilin 17-β-D-glucopyranoside group (db/db, n=18), the metformin group (db/db, n=18), the nomilin/metformin combination group (db/db, n=18), the deacetylnomilin/metformin combination group (db/db, n=18), the nomilin acid/metformin combination group (db/db, n=18), the deactylnomilin 17-β-D-glucopyranoside/combination group (db/db, n=18).
# Gavage doses: nomilin at a dose of 0.2 g/kg was gavaged per day for the nomilin group, deacetylnomilin at a dose of 0.2 g/kg was gavaged per day for the deacetylnomilin group, nomilin acid at a dose of 0.2 g/kg was gavaged per day for the nomilin acid group, deacetylnomilin […] at a dose of 0.2 g/kg was gavaged per day for the deactylnomilin glucopyranoside group, metformin at a dose of 0.2 g/kg was gavaged per day for the metformin group, nomilin at a dose of 0.1 g/kg and metformin at a dose of 0.1 g/kg were simultaneously gavaged per day for the nomilin/metformin combination group, nomilin acid at a dose of 0.1 g/kg and metformin at a dose of 0.1 g/kg were simultaneously gavaged per day for the nomilin acid/metformin combination group, deacetylnomilin at a dose of 0.1 g/kg and metformin at a dose of 0.1 g/kg were simultaneously gavaged per day for the deacetylnomilin/metformin combination group, deactylnomilin 17-β-D-glucopyranoside at a dose of 0.1 g/kg and metformin at a dose of 0.1 g/kg were simultaneously gavaged per day for the deactylnomilin 17-β-D-glucopyranoside/metformin combination group, the gavage volume was 10 mL/kg, and the normal group and the model group were administrated with 10 mL/kg of distilled water. Two weeks later, the blood glucose values were measured by tail trimming method (Johnson's blood glucose meter) 1 h after the last administration, and serum insulin levels were measured with blood collected from orbital cavity by enzyme-linked immunosorbent assay (Elisa), and the average of each group was obtained. SPSS 16.0 software was used for statistical analysis. The data were expressed as mean and standard deviation. The data before and after were analyzed by t-test, and P<0.05 was considered statistically significant.
# STZ mice [2] = assay: Blood glucose in mouse model of type II diabetes with pancreatic islet damage and obesity (Example 5); settings: high-fat diet + STZ ICR mice; single administration 0.5 g/kg per day by gavage, three weeks
# Description: as §1, with “It” for “Conditions for experimental feeding: as type II diabetes model mice, 6-week-old SPF-grade db/db mice were purchased from the Nanjing Model Biology Institute, and subjected to experimental feeding after 7 days of preliminary feeding. It”
# SPSS 16.0 software was used for statistical analysis.
Compound,Blood glucose value (STZ mice [1]) [mmol/L],Blood glucose value (STZ mice [2]) [mmol/L],also measured
ichangin 17-β-D-glucopyranoside,14.9 ± 2.1,–,–
deactylnomilin 17-β-D-glucopyranoside,–,12.7 ± 2.5,"Insulin (db/db mice; serum, Elisa): 8.40 ± 3.27 pg/mL; Blood glucose value (db/db mice; 1 h after last administration): 12.8 ± 5.5 mmol/L"
"CC1(C)O[C@](C)(O)[C@]2(C)[C@H]3CC[C@@]4(C)[C@H](c5ccoc5)OC(=O)[C@H]5O[C@]54[C@]3(C)C(=O)C[C@@H]12 [Ichangensin, ichangensin]",14.5 ± 3.5,–,–
nomilin 17-β-D-glucopyranoside,–,12.8 ± 2.9,–
nomilinic acid 17-β-D-glucopyranoside,–,13.5 ± 2.4,–
"CC(C)(O)[C@@H]1CC(=O)[C@]2(C)[C@H](CC[C@@]3(C)[C@H](c4ccoc4)OC(=O)[C@H]4O[C@]432)[C@]12COC(=O)C[C@@H]2O [Ichangin, ichangin]",14.8 ± 1.9,–,–
